Test results: ChEMBL document CHEMBL1201862, “PubChem BioAssay data set” (2004)
The source made the active and inactive calls.

Assays:
[1] = target: T1, Glycogen synthase kinase-3 beta (Homo sapiens, UniProt P49841); type: functional;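 also: value comes from a broad kinome profiling panel, with GSK3B as the panel member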
[2] = target: Tyrosine-protein kinase JAK2 (Homo sapiens, UniProt O60674); type: functional;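 also: JAK2 tested as one member of a kinase panel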
[3] = target: Fibroblast growth factor receptor 1 (Homo sapiens, UniProt P11362); type: functional
[4] = target: 5'-AMP-activated protein kinase catalytic subunit alpha-1 (Homo sapiens, UniProt Q13131); type: functional
[5] = target: Dual specificity mitogen-activated protein kinase kinase 2 (Homo sapiens, UniProt P36507); test: Navigating the Kinome. Panel member name: MAP2K2; type: functional
[6] = target: Tyrosine-protein kinase Fyn (Homo sapiens, UniProt P06241); type: functional
[7] = target: Serine/threonine-protein kinase TBK1 (Homo sapiens, UniProt Q9UHD2); test: Navigating the Kinome. Panel member name: TBK1; type: functional
[8] = target: Dual specificity tyrosine-phosphorylation-regulated kinase 1B (Homo sapiens, UniProt Q9Y463); test: Navigating the Kinome. Panel member name: DYRK1B; type: functional
[9] = target: G protein-coupled receptor kinase 5 (Homo sapiens, UniProt P34947); test: Navigating the Kinome. Panel member name: GPRK5; type: functional
[10] = target: cAMP-dependent protein kinase catalytic subunit alpha (Homo sapiens, UniProt P17612); type: functional
[11] = target: cAMP-dependent protein kinase catalytic subunit PRKX (Homo sapiens, UniProt P51817); type: functional
[12] = target: Tyrosine-protein kinase BTK (Homo sapiens, UniProt Q06187); type: functional
[13] = target: Mitogen-activated protein kinase 14 (Homo sapiens, UniProt Q16539); type: functional;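 also: part of a kinome-wide panel, MAPK14 entry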
[14] = target: Death-associated protein kinase 3 (Homo sapiens, UniProt O43293); type: functional;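 also: measured as one member of a kinome-wide profiling panel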
[15] = target: Dual specificity protein kinase CLK2 (Homo sapiens, UniProt P49760); type: functional
[16] = target: Macrophage colony-stimulating factor 1 receptor (Homo sapiens, UniProt P07333); type: functional;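 also: value comes from the Navigating the Kinome screening panel, CSF1R member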
[17] = target: Rho-associated protein kinase 1 (Homo sapiens, UniProt Q13464); type: functional;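 also: measured within a broad kinome-wide panel profiling many kinases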
[18] = target: Platelet-derived growth factor receptor alpha (Homo sapiens, UniProt P16234); test: Navigating the Kinome. Panel member name: PDGFRA; type: functional
[19] = target: Macrophage-stimulating protein receptor (Homo sapiens, UniProt Q04912); test: Navigating the Kinome. Panel member name: MST1R; type: functional
[20] = target: Inhibitor of nuclear factor kappa-B kinase subunit epsilon (Homo sapiens, UniProt Q14164); test: Navigating the Kinome. Panel member name: IKBKE; type: functional
[21] = target: Mitogen-activated protein kinase 9 (Homo sapiens, UniProt P45984); type: functional;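 also: value from a kinome panel profiling assay, MAPK9 panel entry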
[22] = target: Proto-oncogene tyrosine-protein kinase receptor Ret (Homo sapiens, UniProt P07949); type: functional;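 also: measured within a kinome-wide profiling panel, RET as the panel member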
[23] = target: Mitogen-activated protein kinase 8 (Homo sapiens, UniProt P45983); type: functional;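 also: value comes from one member of a kinome-wide kinase profiling panel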
Activated CDC42 kinase 1 = Activated CDC42 kinase 1 (Homo sapiens, UniProt Q07912); test: Navigating the Kinome. Panel member name: ACK1; type: functional
[24] = target: Dual specificity protein kinase CLK4 (Homo sapiens, UniProt Q9HAZ1); type: functional
[25] = target: Cyclin-dependent kinase 8 (Homo sapiens, UniProt P49336); test: Navigating the Kinome. Panel member name: CDK8; type: functional
[26] = target: Leukocyte tyrosine kinase receptor (Homo sapiens, UniProt P29376); test: Navigating the Kinome. Panel member name: LTK; type: functional
[27] = target: Serine/threonine-protein kinase TAO1 (Homo sapiens, UniProt Q7L7X3); type: functional
Aurora kinase A = Aurora kinase A (Homo sapiens, UniProt O14965); type: functional;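 also: value from the Navigating the Kinome kinase panel profiling, panel entry STK6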
[28] = target: ALK tyrosine kinase receptor (Homo sapiens, UniProt Q9UM73); type: functional;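 also: ALK tested as one member of a kinase panel screen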
[29] = target: Mitogen-activated protein kinase kinase kinase kinase 4 (Homo sapiens, UniProt O95819); type: functional
[30] = target: Insulin-like growth factor 1 receptor (Homo sapiens, UniProt P08069); test: Navigating the Kinome. Panel member name: IGF1R; type: functional
[31] = target: Ribosomal protein S6 kinase alpha-3 (Homo sapiens, UniProt P51812); type: functional;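 also: measured within a kinome-wide profiling panel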
[32] = target: Vascular endothelial growth factor receptor 1 (Homo sapiens, UniProt P17948); type: functional;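 also: measured within a kinome-wide profiling panel, FLT1 as the panel member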
[33] = target: Tyrosine-protein kinase Lck (Homo sapiens, UniProt P06239); type: functional;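 also: lck was assayed as one member of a kinase panel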
[34] = target: Vascular endothelial growth factor receptor 2 (Homo sapiens, UniProt P35968); type: functional
[35] = target: Tyrosine-protein kinase receptor TYRO3 (Homo sapiens, UniProt Q06418); type: functional;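 also: TYRO3 value obtained as one member of a kinome-wide profiling panel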
[36] = target: Serine/threonine-protein kinase pim-1 (Homo sapiens, UniProt P11309); type: functional
[37] = target: Serine/threonine-protein kinase D3 (Homo sapiens, UniProt O94806); type: functional;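 also: determined within a kinase panel screen, with PRKCN as the panel member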
[38] = target: Calcium/calmodulin-dependent protein kinase type II subunit alpha (Homo sapiens, UniProt Q9UQM7); test: Navigating the Kinome. Panel member name: CAMK2A; type: functional
[39] = target: T2, Glycogen synthase kinase-3 alpha (Homo sapiens, UniProt P49840); type: functional;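 also: GSK3A result taken from a broad kinome-wide kinase panel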
[40] = target: Dual specificity mitogen-activated protein kinase kinase 1 (Homo sapiens, UniProt Q02750); test: Navigating the Kinome. Panel member name: MAP2K1; type: functional
[41] = target: Cyclin-dependent kinase 7 (Homo sapiens, UniProt P50613); type: functional;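 also: value comes from a kinome-wide kinase profiling panel in which CDK7 is one member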
[42] = target: Tyrosine-protein kinase ABL1 (Homo sapiens, UniProt P00519); type: functional
[43] = target: Protein kinase C theta type (Homo sapiens, UniProt Q04759); test: Navigating the Kinome. Panel member name: PRKCQ; type: functional
[44] = target: Leucine-rich repeat serine/threonine-protein kinase 2 (Homo sapiens, UniProt Q5S007); type: functional;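 also: value from a broad kinome-wide panel profiling study in which LRRK2 was one of the kinases tested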
[45] = target: Serine/threonine-protein kinase N2 (Homo sapiens, UniProt Q16513); type: functional
[46] = target: Mitogen-activated protein kinase kinase kinase kinase 2 (Homo sapiens, UniProt Q12851); type: functional;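 also: measured as one member of a kinome-wide kinase panel, with MAP4K2 as the panel entry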
[47] = target: BDNF/NT-3 growth factors receptor (Homo sapiens, UniProt Q16620); type: functional;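 also: NTRK2 measured as one member of a broad kinome-wide kinase profiling panel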
[48] = target: Receptor-type tyrosine-protein kinase FLT3 (Homo sapiens, UniProt P36888); type: functional;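 also: FLT3 was tested as one member of a kinome-wide kinase panel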
[49] = target: Dual specificity tyrosine-phosphorylation-regulated kinase 1A (Homo sapiens, UniProt Q13627); type: functional;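 also: measured against DYRK1A as one member of a broad kinome profiling panel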
[50] = target: Cyclin-dependent kinase 5 (Homo sapiens, UniProt Q00535); type: functional;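 also: CDK5 measured as one member of a kinase profiling panel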
[51] = target: Tyrosine-protein kinase JAK3 (Homo sapiens, UniProt P52333); type: functional
[52] = target: Serine/threonine-protein kinase PAK 4 (Homo sapiens, UniProt O96013); type: functional;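 also: value obtained within a kinome profiling panel in which PAK4 was one of the panel members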
[53] = target: Cyclin-dependent kinase 9 (Homo sapiens, UniProt P50750); type: functional;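 also: value from the CDK9 entry of a kinome-spanning kinase panel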
Activin receptor type-1 = Activin receptor type-1 (Homo sapiens, UniProt Q04771); test: Navigating the Kinome. Panel member name: ACVR1; type: functional
[54] = target: FAD-linked sulfhydryl oxidase ALR (Homo sapiens, UniProt P55789); test: inhibitors of human ALR sulfhydryl oxidase, dose response, biochemical, H2O2 detection, luminescence, cherry-pick (AID 493248)
[55] = target: T2, Glycogen synthase kinase-3 alpha; test: human GSK3 alpha kinase inhibition, dose response, selectivity assay for GSK3beta inhibitor project, biochemical, microfluidics, dry powder samples, set 2 (AID 623978); type: functional
[56] = target: T1, Glycogen synthase kinase-3 beta; test: GSK3beta kinase inhibitors, dose response, biochemical, microfluidics, dry powder samples, set 2 (AID 623989); type: functional
[57] = target: Cyclin-dependent kinase 5/CDK5 activator 1 (Homo sapiens, UniProt Q00535); test: CDK5-p25 kinase inhibition, dose response, selectivity assay for GSK3beta inhibitor project, biochemical, microfluidic mobility shift, dry powder, set 2 (AID 623979); type: functional
[58] = SAR analysis of small molecule activators of Apaf-1 using a LZ-Caspase-9/Caspase-3 Fluorescent Selectivity assay - Set 2.; type: functional; conditions: read-out: EC50_Mean
[59] = target: T3, Apoptotic protease-activating factor 1 (Homo sapiens, UniProt O14727); test: SAR analysis of small molecule Activators of Apaf-1 in a Fluorescent assay - set 2.; type: functional; conditions: read-out: EC50_Mean
T3 sequence (O14727 whole entry): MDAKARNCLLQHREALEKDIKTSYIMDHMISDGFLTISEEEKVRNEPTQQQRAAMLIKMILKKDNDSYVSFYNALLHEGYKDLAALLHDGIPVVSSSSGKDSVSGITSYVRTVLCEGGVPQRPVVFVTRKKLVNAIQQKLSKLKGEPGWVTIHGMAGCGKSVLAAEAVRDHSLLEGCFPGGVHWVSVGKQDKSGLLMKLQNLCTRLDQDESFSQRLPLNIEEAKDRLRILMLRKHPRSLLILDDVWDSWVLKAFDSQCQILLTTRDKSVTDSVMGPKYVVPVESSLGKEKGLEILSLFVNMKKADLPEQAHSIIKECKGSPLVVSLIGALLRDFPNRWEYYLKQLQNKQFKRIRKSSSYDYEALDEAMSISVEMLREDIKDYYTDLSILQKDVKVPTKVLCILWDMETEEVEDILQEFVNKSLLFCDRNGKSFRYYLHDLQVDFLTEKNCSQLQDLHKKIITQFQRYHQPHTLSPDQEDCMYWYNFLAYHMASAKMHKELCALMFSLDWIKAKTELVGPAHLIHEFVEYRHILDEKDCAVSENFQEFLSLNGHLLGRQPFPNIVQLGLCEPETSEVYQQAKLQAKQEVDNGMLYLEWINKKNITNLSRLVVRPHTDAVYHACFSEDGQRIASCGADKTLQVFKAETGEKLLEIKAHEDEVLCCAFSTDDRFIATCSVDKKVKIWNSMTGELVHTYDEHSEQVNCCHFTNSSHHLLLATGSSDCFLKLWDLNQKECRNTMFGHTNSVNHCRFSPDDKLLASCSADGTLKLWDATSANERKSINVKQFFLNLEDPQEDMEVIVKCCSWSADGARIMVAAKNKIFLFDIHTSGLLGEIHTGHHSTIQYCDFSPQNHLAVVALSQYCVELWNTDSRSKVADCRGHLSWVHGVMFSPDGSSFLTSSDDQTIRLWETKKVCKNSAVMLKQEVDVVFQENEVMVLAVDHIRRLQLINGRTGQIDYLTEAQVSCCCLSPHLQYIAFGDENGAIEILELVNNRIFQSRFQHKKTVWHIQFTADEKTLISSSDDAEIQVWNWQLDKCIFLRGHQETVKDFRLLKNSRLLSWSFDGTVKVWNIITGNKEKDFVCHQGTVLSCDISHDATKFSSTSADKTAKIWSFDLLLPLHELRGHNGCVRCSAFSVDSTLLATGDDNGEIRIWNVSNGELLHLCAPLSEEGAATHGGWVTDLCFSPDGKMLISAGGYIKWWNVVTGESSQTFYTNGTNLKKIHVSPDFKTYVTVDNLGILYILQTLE

T2 sequence (P49840 whole entry): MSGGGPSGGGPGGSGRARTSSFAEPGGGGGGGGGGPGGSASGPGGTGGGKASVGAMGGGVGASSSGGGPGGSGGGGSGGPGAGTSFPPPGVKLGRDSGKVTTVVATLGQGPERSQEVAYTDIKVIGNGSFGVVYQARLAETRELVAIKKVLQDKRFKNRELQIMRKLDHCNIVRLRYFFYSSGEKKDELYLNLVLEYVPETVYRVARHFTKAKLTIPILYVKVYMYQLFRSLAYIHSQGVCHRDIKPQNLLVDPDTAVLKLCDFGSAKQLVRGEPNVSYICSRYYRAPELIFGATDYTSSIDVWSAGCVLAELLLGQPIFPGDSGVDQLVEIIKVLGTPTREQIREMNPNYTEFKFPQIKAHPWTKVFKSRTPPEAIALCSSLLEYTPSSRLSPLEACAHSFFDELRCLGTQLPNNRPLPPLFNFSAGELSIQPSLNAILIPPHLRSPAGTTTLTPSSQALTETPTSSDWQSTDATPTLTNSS
T1 sequence (P49841 whole entry): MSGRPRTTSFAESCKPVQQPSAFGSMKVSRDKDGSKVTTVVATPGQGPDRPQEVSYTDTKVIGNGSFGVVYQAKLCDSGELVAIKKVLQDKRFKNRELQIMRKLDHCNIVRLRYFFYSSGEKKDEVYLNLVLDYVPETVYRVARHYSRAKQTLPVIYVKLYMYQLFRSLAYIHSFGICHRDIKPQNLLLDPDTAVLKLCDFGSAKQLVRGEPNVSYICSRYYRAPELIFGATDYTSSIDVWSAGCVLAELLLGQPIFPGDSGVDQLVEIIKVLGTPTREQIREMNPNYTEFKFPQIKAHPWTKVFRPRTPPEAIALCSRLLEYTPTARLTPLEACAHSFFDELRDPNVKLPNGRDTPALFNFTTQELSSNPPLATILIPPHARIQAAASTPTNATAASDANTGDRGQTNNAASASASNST
Proto-oncogene tyrosine-protein kinase receptor Ret, sequence (P07949 whole entry): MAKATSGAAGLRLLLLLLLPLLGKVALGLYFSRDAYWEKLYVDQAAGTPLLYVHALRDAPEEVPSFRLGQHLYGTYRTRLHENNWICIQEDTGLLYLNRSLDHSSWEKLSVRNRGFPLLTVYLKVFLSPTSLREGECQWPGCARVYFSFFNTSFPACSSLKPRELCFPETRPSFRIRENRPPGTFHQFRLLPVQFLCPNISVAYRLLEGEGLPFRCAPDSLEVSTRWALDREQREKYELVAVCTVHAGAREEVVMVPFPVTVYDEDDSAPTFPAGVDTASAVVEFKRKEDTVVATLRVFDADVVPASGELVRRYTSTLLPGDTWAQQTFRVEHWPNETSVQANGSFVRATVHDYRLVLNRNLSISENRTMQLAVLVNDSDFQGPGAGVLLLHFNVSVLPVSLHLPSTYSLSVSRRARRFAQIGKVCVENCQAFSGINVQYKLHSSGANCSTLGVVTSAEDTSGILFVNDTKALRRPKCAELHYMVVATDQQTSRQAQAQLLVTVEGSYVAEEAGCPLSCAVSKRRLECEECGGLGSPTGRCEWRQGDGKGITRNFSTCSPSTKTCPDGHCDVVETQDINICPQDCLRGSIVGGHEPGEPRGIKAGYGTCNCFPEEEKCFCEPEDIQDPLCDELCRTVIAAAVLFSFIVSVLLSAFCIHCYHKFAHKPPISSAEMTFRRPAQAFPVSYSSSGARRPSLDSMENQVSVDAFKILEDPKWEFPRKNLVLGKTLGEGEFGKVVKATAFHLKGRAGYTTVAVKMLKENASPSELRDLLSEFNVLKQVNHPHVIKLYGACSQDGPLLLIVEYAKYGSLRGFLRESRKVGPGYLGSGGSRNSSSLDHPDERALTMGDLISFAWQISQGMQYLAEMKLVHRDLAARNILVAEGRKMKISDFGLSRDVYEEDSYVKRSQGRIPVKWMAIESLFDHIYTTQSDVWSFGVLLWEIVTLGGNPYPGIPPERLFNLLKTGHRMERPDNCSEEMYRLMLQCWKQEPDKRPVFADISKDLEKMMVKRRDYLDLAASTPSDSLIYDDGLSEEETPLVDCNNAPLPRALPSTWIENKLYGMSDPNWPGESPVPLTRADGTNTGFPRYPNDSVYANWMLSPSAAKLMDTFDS
Tyrosine-protein kinase receptor TYRO3, sequence (Q06418 whole entry): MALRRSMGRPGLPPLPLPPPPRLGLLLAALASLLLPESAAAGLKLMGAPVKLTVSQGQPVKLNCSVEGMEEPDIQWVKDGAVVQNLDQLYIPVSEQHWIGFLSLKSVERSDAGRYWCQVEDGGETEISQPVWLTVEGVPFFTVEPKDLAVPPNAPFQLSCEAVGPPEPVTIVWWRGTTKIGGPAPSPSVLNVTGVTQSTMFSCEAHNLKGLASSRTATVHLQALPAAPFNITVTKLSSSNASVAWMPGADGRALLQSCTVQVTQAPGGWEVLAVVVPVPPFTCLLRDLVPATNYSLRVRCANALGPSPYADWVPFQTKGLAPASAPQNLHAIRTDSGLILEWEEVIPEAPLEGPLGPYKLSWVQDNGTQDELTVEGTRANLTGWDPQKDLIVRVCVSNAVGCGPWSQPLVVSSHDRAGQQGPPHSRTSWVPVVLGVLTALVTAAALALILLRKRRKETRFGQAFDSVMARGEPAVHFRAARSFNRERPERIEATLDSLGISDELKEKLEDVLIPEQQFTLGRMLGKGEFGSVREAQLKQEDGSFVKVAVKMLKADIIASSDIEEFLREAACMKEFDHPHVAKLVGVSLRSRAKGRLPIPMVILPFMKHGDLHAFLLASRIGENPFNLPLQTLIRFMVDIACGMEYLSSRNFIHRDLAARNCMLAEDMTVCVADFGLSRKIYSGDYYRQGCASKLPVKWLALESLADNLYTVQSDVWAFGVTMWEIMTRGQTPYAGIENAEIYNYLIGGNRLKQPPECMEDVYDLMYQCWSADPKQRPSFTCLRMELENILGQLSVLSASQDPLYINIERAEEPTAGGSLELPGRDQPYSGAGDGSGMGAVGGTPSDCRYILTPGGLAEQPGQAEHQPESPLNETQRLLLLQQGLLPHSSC
Cyclin-dependent kinase 8, sequence (P49336 whole entry): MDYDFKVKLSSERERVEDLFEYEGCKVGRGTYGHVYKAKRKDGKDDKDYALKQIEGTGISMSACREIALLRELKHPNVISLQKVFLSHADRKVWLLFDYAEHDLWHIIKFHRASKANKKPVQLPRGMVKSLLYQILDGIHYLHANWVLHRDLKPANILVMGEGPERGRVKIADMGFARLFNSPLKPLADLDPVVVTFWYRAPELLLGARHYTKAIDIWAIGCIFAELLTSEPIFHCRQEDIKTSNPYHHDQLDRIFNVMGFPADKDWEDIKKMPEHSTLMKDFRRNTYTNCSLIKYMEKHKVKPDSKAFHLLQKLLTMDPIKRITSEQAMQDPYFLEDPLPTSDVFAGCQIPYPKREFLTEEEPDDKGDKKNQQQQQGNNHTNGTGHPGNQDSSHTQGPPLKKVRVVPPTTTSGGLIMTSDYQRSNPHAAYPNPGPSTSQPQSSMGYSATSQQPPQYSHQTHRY
Leukocyte tyrosine kinase receptor, sequence (P29376 whole entry): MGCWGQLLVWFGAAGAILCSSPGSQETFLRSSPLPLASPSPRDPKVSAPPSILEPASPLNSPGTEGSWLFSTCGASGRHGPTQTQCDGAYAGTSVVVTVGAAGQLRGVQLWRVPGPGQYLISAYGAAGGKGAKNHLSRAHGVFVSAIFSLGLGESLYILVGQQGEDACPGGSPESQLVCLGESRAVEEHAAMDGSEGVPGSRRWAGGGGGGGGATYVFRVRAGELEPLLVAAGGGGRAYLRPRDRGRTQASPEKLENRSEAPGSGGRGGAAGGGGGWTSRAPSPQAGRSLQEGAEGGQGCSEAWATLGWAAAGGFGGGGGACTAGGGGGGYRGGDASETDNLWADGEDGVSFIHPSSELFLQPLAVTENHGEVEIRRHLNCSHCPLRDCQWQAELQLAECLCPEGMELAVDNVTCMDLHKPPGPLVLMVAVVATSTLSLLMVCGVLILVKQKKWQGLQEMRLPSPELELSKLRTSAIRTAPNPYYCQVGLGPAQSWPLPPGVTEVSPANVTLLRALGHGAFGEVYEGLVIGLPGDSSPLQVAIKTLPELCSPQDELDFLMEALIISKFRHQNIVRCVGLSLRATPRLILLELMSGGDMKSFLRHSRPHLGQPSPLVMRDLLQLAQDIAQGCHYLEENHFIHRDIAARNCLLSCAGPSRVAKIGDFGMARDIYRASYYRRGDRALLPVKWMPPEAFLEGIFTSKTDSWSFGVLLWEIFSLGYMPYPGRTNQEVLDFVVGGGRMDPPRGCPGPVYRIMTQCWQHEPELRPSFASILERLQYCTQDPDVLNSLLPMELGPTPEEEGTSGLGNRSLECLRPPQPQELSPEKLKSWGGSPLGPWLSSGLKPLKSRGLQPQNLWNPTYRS
Serine/threonine-protein kinase PAK 4, sequence (O96013 whole entry): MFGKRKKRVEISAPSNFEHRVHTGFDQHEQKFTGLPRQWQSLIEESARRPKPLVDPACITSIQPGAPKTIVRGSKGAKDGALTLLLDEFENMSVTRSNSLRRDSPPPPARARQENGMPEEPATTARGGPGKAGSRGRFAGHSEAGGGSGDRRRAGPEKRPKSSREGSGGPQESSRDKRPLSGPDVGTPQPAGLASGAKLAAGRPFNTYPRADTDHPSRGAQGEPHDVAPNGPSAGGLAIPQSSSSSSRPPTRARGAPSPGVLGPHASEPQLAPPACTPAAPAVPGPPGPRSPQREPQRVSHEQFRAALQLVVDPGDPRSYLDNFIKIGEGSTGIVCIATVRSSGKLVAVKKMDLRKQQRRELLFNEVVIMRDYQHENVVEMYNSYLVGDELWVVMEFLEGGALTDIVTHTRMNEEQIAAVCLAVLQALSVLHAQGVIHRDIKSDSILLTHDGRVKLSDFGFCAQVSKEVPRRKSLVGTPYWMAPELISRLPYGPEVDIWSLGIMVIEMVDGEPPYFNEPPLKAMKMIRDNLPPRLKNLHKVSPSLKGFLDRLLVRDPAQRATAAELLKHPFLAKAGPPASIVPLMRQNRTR
FAD-linked sulfhydryl oxidase ALR, sequence (P55789 whole entry): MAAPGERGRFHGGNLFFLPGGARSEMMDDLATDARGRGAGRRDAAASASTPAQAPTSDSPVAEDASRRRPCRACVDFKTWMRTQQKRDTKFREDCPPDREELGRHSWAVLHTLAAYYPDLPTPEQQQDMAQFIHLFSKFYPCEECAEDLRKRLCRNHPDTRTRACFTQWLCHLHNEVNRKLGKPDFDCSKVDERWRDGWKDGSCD

SMILES: CC1CCN(C(=O)CC#N)CC1c1ncc2cnc3[nH]ccc3n12 (configuration not stated)
- Ki [1]: > 3.98 µM (inactive)
- Ki [2]: 0.000794 µM (active)
- Ki [3]: > 3.98 µM (inactive)
- Ki [4]: > 3.16 µM (inactive)
- Ki [5]: > 3.98 µM (inactive)
- Ki [6]: > 6.31 µM (inactive)
- Ki [7]: > 3.16 µM (inactive)
- Ki [8]: > 2.51 µM (inactive)
- Ki [9]: > 3.98 µM (inactive)
- Ki [10]: 0.501 µM (active)
- Ki [11]: 0.316 µM (active)
- Ki [12]: > 6.31 µM (inactive)
- Ki [13]: > 3.98 µM (inactive)
- Ki [14]: > 5.01 µM (inactive)
- Ki [15]: > 3.98 µM (inactive)
- Ki [16]: > 2.51 µM (inactive)
- Ki [17]: 0.0251 µM (active)
- Ki [18]: > 2.51 µM (inactive)
- Ki [19]: > 2.51 µM (inactive)
- Ki [20]: > 3.16 µM (inactive)
- Ki [21]: > 3.98 µM (inactive)
- Ki [22]: 2.51 µM (active)
- Ki [23]: > 2.51 µM (inactive)
- Ki (Activated CDC42 kinase 1): > 3.16 µM (inactive)
- Ki [24]: > 2.51 µM (inactive)
- Ki [25]: > 3.16 µM (inactive)
- Ki [26]: 1 µM (active)
- Ki [27]: > 6.31 µM (inactive)
- Ki (Aurora kinase A): > 1.58 µM (inactive)
- Ki [28]: > 6.31 µM (inactive)
- Ki [29]: > 5.01 µM (inactive)
- Ki [30]: > 2.51 µM (inactive)
- Ki [31]: > 3.98 µM (inactive)
- Ki [32]: > 3.98 µM (inactive)
- Ki [33]: 2.51 µM (active)
- Ki [34]: 1.26 µM (active)
- Ki [35]: > 3.16 µM (inactive)
- Ki [36]: > 6.31 µM (inactive)
- Ki [37]: > 3.98 µM (inactive)
- Ki [38]: > 7.94 µM (inactive)
- Ki [39]: 2.51 µM (active)
- Ki [40]: > 3.16 µM (inactive)
- Ki [41]: > 3.98 µM (inactive)
- Ki [42]: > 3.98 µM (inactive)
- Ki [43]: > 1.26 µM (inactive)
- Ki [44]: 0.316 µM (active)
- Ki [45]: 0.316 µM (active)
- Ki [46]: > 2.51 µM (inactive)
- Ki [47]: > 3.98 µM (inactive)
- Ki [48]: > 3.16 µM (inactive)
- Ki [49]: > 2 µM (inactive)
- Ki [50]: > 3.16 µM (inactive)
- Ki [51]: 0.00316 µM (active)
- Ki [52]: > 5.01 µM (inactive)
- Ki [53]: > 1.58 µM (inactive)
- Ki (Activin receptor type-1): > 3.98 µM (inactive)

SMILES: COc1ccc(S(=O)(=O)Nc2c(C(=O)O)[nH]c3ccc(OC)cc23)cc1
- AC50 [54]: 2.51 µM (active)
- AC50 [55]: 5.47 µM (active)
- AC50 [56]: 1.46 µM (active)
- AC50 [57]: 3.7 µM (active)

SMILES: CC(Cn1nnc2ccccc21)C(=O)O (configuration not stated)
- EC50 [58]: > 100 µM (inactive)
- EC50 [59]: 42.6 µM (active)
